Assay results published in US20030091627A1, “Rate-controlled delivery of macrolides” (priority 2001, published 2003).
Values after ≈ are worked out from the molar mass of the structure shown.

What was measured:
[1] = Solubility of clarithromycin as a function of pH (tested in water without a buffer); assay type: physicochemical
[2] = acidic pH; cited from earlier work
[3] = Solubility of clarithromycin along the gastrointestinal tract; assay type: physicochemical

- solubility ([1]; aqueous buffer, pH 2.4, water without a buffer, read-out: Solubility): ~10000 µg/mL (≈ 13.4 mM)
- solubility ([1]; aqueous buffer, pH 5.4, water without a buffer, read-out: Solubility): ~5500 µg/mL (≈ 7.35 mM)
- solubility ([1]; pH 7.4, water without a buffer): about negligible
- solubility ([3]; colon, pH 7.5 to 8.5): about insoluble
- solubility ([3]; duodenum (region of the gastrointestinal tract), read-out: Solubility): 5000 µg/mL (≈ 6.68 mM)
- solubility ([3]; stomach (region of the gastrointestinal tract), read-out: Solubility): 10000 µg/mL (≈ 13.4 mM)
SMILES: CC[C@H]1OC(=O)[C@H](C)[C@@H](O[C@H]2C[C@@](C)(OC)[C@@H](O)[C@H](C)O2)[C@H](C)[C@@H](O[C@@H]2O[C@H](C)C[C@H](N(C)C)[C@H]2O)[C@](C)(OC)C[C@@H](C)C(=O)[C@H](C)[C@@H](O)[C@]1(C)O [Clarithromycin]
- Stability [2]: stable at an acidic pH
